Source: paper PMC12096346, “Disposable Face Masks for Noninvasive Drug Detection: A Proof-of-Concept Study with Cough Syrup Constituents” (Analytical Chemistry, 2025)
Read-outs that look alike come from different tables or passages of the source.

Tests used:
clinical = settings: both, human, in vivo, po
[1] = PubChem, cited from earlier work
[2] = reported in the literature, ref numbers not given; cited from earlier work
[3] = Drug clearance study by breathing through face masks (exhaled breath, LC-MS/MS); settings: for MRT / Tmax / half-life / k el: both, human, in vivo, po, 15 mL
[4] = Comparative urine analysis after ingesting cough syrup (LC-MS/MS, creatinine-normalized); format: in vivo, humans; settings: 15 mL cough syrup oral; for k el / MRT / Tmax / half-life: human, in vivo; for MRT: reciprocal of kel; for Tmax: seven volunteers; for half-life: time from Cmax to half of Cmax
[5] = both, human, in vivo, po
[6] = exhaled breath, 15 mL cough syrup oral

Structure (SMILES)	MRT (clinical)	Tmax (clinical)	k el (clinical)	pKa [1]	pKa ([1]; listed as Clp)	plasma t1/2 [2]	MRT [3]	Tmax [3]	half-life [3]	k el [3]	detection window [3, 6]	detection window [4]	k el [4]	MRT [4]	Tmax [4]	half-life [4]	Cmax in exhaled breath [3, 6]	half-life (clinical)	detection window [5]
CN(C)CCC(c1ccc(Cl)cc1)c1ccccn1 (stereo not shown) [Chlorpheniramine]	34.2 ± 4.6 h	13.1 ± 5 h	8.33e-06 s⁻¹	9.5^36	~9.5	–	–	–	–	–	–	–	–	–	–	–	–	–	–
COc1ccc2c3c1O[C@H]1[C@@H](O)C=C[C@H]4[C@@H](C2)N(C)CC[C@@]341 [Codeine]	–	–	–	–	–	2 to 3 h	3.9 ± 0.8 h	1.9 ± 1 h	2.9 ± 0.8 h	8.33e-05 s⁻¹	61.3 ± 12.7 h	68.2 ± 8.3 h	8.33e-05 s⁻¹	4.6 ± 2.1 h	2.1 ± 1.3 h	3.3 ± 0.7 h	–	–	–
CN[C@@H](C)[C@H](O)c1ccccc1 [Ephedrine]	–	–	–	–	–	approximately 6 h	14.5 ± 4.1 h	6.9 ± 1.1 h	10 ± 2.8 h	2.78e-05 s⁻¹	92.6 ± 9.1 h	79.9 ± 11.4 h	2.78e-05 s⁻¹	10.4 ± 3.3 h	2.7 ± 1.8 h	6.2 ± 0.6 h	10.8 ± 1.6 ng/m^3	–	–
COc1ccccc1OCC(O)CO (stereo not shown) [Guaifenesin]	4.8 ± 4.2 h	0.9 ± 0.2 h	0.000111 s⁻¹	–	–	~1 h	–	–	–	–	–	–	–	–	–	–	–	2.1 ± 0.9 h	65.1 ± 18.1 h
